In brackets after ≈: the same amount, converted by molar mass. Where two headings read alike, the source gives them in different places.
Legend:
[1] = tested on: P. aeruginosa PSA_1992/05; experiment: Broth microdilution MIC with and without bacteriophage cocktail; assay type: cell-based, Pseudomonas aeruginosa
Protocol: The method was developed and optimized as a proof of concept for P. aeruginosa using a single strain infected by all three phages (PSA_1992/05; NCIMB deposit 42914)). […] Different time points (4 h, 6 h, 12 h and 18 h) were used for optimization of the technique, but final readings were determined at 18 h. All experiments were conducted in duplicates. The study was optimized for the individual bacteriophages and a final assay is presented here containing data for the complete cocktail.

[2] = tested on: K. pneumoniae bacterial isolates (n=36); experiment: Antibiotic susceptibility testing by disk diffusion; assay type: cell-based, Klebsiella pneumoniae; conditions: EUCAST cut-off values
Protocol: A selected group of K. pneumoniae bacterial isolates were collected between 2005 and 2019 (n=36), in at least 7 different health care facilities. Overall, these isolates were collected from hospital settings (n=25), outpatients (n=9), or from unknown origin (n=2), and from a diversity of biological products [urine (n=10), respiratory secretions (n=5), unknown (n=8), abdominal fluids (n=5) and others (n=8)]. This panel was evaluated with regards to antibiotic susceptibility testing by disk diffusion method against a selected panel of clinically important antibiotics (β-lactam antibiotics—ampicillin, ceftazidime, piperacillin with tazobactam, and meropenem; fluoroquinolones—ciprofloxacin; aminoglycosides—gentamicin; and sulphonamides—trimethoprim with sulfamethoxazole). Interpretation of results was performed according to the cut-off values recommended by the European Committee on Antimicrobial Susceptibility Testing (EUCAST, http://mic.eucast.org/Eucast2/). Isolates were considered multidrug resistant (MDR) when presenting non-susceptibility to three or more structurally unrelated classes of antibiotics (Magiorakos A P, Srinivasan A, Carey R B., Carmeli Y, Falagas M E, et al. 2011. Clin Microbiol Infect 2012; 18: 268-281).

[3] = in the presence of bacteriophage cocktail TP-122A at MOI 0.1, 18 h
[4] = in the presence of bacteriophage cocktail TP-122A at MOI 1, 18 h
[5] = in the presence of bacteriophage cocktail TP-122A at MOI 10, 18 h
[6] = Pseudomonas aeruginosa, No Phage, reading at 18 h, read-out: MIC

| Compound | MIC ([1]; Pseudomonas aeruginosa, 18 h) | MIC [1, 3] | MIC [1, 4] | MIC [1, 5] | MIC [1, 6] | isolates non-susceptible [2] | MIC ([1]; No Phage, reading at 18 h) |
| --- | --- | --- | --- | --- | --- | --- | --- |
| CN[C@H](CC(C)C)C(=O)N[C@H]1C(=O)N[C@@H](CC(N)=O)C(=O)N[C@H]2C(=O)N[C@H]3C(=O)N[C@H](C(=O)N[C@H](C(=O)O)c4cc(O)cc(O)c4-c4cc3ccc4O)[C@H](O)c3ccc(c(Cl)c3)Oc3cc2cc(c3O[C@@H]2O[C@H](CO)[C@@H](O)[C@H](O)[C@H]2O[C@H]2C[C@](C)(N)[C@H](O)[C@H](C)O2)Oc2ccc(cc2Cl)[C@H]1O [VA, vancomycin] | > 32 µg/mL | ≤0.016 µg/mL | ≤0.016 µg/mL | ≤0.016 µg/mL |  |  |  |
| NCC[C@H](O)C(=O)N[C@@H]1C[C@H](N)[C@@H](O[C@H]2O[C@H](CN)[C@@H](O)[C@H](O)[C@H]2O)[C@H](O)[C@H]1O[C@H]1O[C@H](CO)[C@@H](O)[C@H](N)[C@H]1O [AK, amikacin] |  | ≤0.016 µg/mL | ≤0.016 µg/mL | ≤0.016 µg/mL | 0.5 µg/mL (≈ 0.854 µM) |  |  |
| piperacillin with tazobactam [TZP] |  | ≤0.016 µg/mL | ≤0.016 µg/mL | ≤0.016 µg/mL |  | 97.2% | 1 µg/mL |
| trimethoprim with sulfamethoxazole |  |  |  |  |  | 88.9% |  |
| CC(=O)NC[C@H]1CN(c2ccc(N3CCOCC3)c(F)c2)C(=O)O1 [LZD, linezolid] |  | ≤0.016 µg/mL | ≤0.016 µg/mL | ≤0.016 µg/mL | > 32 µg/mL |  |  |
| CC(C)(O/N=C(\C(=O)N[C@@H]1C(=O)N2C(C(=O)[O-])=C(C[n+]3ccccc3)CS[C@H]12)c1csc(N)n1)C(=O)O [C/ZD, ceftazidime] |  | ≤0.016 µg/mL | ≤0.016 µg/mL | ≤0.016 µg/mL |  | 86.1% | .5 µg/mL (≈ 0.915 µM) |
| CC1(C)S[C@@H]2[C@H](NC(=O)[C@H](N)c3ccccc3)C(=O)N2[C@H]1C(=O)O [ampicillin] |  |  |  |  |  | 100% |  |
| colistin [CS] |  | ≤0.016 µg/mL | ≤0.016 µg/mL | ≤0.016 µg/mL |  |  | 0.25 µg/mL |
| gentamicin |  |  |  |  |  | 72.2% |  |
| O=C(O)c1cn(C2CC2)c2cc(N3CCNCC3)c(F)cc2c1=O [ciprofloxacin] |  |  |  |  |  | 91.7% |  |
| C[C@@H](O)[C@H]1C(=O)N2C(C(=O)O)=C(S[C@@H]3CN[C@H](C(=O)N(C)C)C3)[C@H](C)[C@H]12 [MEM, meropenem] |  | ≤0.016 µg/mL | ≤0.016 µg/mL | ≤0.016 µg/mL | 0.25 µg/mL (≈ 0.652 µM) | 77.8% |  |
